Test results as given in patent US9199965B2, “Benzoimidazole derivatives and pharmaceutical composition comprising the same” (Daewoong Co., Ltd., priority 2005, dated 2015).

Key:
[1] = target: T1, human vanilloid-1 (hVR1) (Homo sapiens, UniProt Q8NER1); assay: Calcium influx of vanilloid receptor in hVR1-HEK293 cells (capsaicin-induced, Fluo-3/AM); format: cell-based; conditions: 1 μM capsaicin-induced intracellular calcium influx, read-out: Inhibitory Activity IC50
T1 construct: expressed in transfected cells; host or cells: HEK293 Tet-on (hVR1-HEK293), doxycycline-induced
T1 sequence (Q8NER1 whole entry): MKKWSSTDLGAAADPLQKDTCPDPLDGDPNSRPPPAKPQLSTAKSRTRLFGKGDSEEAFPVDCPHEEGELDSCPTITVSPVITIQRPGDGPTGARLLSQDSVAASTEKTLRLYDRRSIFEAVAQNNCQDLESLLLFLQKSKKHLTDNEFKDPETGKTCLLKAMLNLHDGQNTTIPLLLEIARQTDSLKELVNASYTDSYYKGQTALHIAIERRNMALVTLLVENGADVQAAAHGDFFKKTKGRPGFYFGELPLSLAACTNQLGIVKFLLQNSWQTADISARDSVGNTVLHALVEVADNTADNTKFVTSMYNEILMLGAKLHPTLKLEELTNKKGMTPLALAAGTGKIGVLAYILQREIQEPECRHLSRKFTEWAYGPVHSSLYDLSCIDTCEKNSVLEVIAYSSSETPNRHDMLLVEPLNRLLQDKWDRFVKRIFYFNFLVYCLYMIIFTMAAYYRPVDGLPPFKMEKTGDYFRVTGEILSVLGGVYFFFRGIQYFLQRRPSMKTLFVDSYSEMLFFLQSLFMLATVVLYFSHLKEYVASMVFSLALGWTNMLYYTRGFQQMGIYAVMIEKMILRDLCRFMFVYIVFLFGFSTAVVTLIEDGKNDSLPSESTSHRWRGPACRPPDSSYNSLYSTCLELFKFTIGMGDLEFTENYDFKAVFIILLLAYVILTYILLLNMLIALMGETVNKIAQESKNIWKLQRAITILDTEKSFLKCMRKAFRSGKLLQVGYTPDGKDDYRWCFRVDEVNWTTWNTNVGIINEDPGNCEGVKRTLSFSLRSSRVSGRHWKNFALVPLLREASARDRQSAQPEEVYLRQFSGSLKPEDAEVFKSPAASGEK
Description: Experiments for calcium influx were performed to measure the activity of the compounds as antagonists.
The cell strain hVR1-HEK293 is the human embryonic kidney (HEK) 293 Tet-on cell transfected with a human vanilloid-1 gene (pTRE2hyg-hVR1, 7.8 kb), which is capable of controlling the expression of VR1 according to the administration of deoxycycline, a tetracycline derivative analog. In a medium supplemented with deoxycycline two days before calcium influx experiments, the cell strain was cultured to induce the expression of VR1. After being grown to a confluency of about 80% in T75 flasks, hVR1-HEK293 was detached from the flask using trypsin. Cells harvested by centrifugation were suspended in a medium supplemented with 1 μg/mL of deoxycycline and diluted to a density of 2-4×10^5 cells/mL, after which a 100 μL aliquot of the cell suspension was added to each well of 96 well black plates. Before the measurement of calcium influx, the cells were incubated for two days at 37° C. in a 5% CO2 incubator.
For use in calcium influx experiments, each compound was dissolved in dimethyl sulfoxide (DMSO).
To measure an intracellular calcium influx, cells were incubated at 37° C. for 90 min in a medium containing the calcium indicator Fluo-3/AM so as to allow the fluorescent dye to penetrate into the cells. Then, the cells were washed three times with D-PBS (Dulbecco's phosphate buffered saline) containing 10 mM HEPES to remove the fluorescent dye which remained outside. 193 μL aliquot of D-PBS was added to each well, followed by the addition of various concentrations of compounds thereto. In order to measure the antagonistic activity of the compounds, calcium influx was induced by treatment with 1 μM capsaicin. The inhibitory effect of each compound on 1 μM capsaicin-induced intracellular calcium influx according to compound concentration was measured using a fluorescent analyzer and the data thus obtained were analyzed on the basis of the Hill's equation.

[2] = test system: ICR male mice (PBQ-induced writhing); assay: PBQ-induced writhing test for analgesic effect; format: in vivo; conditions: Mus musculus, 1 h, 20 mg/kg oral, one hour before intraabdominal PBQ (0.02%), read-out: % Inhibition (decrease in number of writhes compared to control)
Description: A PBQ-induced writhing test was conducted in mice to assay for the analgesic effect of the novel compounds. Five-week-old ICR male mice were treated with PBQ (phenyl-p-quinone, 0.02%). A suspension of 20 mg of test material in 10 mL of physiological saline was used per kg of weight of mice. Test materials in combination with a carrier were orally administered one hour before the intraabdominal injection of PBQ in a dose of 10 mL per kg weight. From 5 min after the injection, individual mice in each test group were measured for numbers of writhes at regular intervals of 10 min. Analgesic effects of test compounds were expressed as percentages of the decrease in number of writhes compared to a control. [% Inhibition=(Control administered with carrier alone−Group administered with test material)/control administered with carrier alone×100]

[3] = target: T2, rat TRPV1 (Rattus norvegicus, UniProt O35433); assay: Assay for inhibitory activity against VR1 patch clamp activity (capsaicin current, inside-out patch); format: cell-based; conditions: 1 μM compound with 10 μM capsaicin; rat TRPV1-transfected HEK293, inside-out patch; relative to capsaicin current before compound
T2 construct: expressed in transfected cells; host or cells: HEK293
T2 sequence (O35433 whole entry): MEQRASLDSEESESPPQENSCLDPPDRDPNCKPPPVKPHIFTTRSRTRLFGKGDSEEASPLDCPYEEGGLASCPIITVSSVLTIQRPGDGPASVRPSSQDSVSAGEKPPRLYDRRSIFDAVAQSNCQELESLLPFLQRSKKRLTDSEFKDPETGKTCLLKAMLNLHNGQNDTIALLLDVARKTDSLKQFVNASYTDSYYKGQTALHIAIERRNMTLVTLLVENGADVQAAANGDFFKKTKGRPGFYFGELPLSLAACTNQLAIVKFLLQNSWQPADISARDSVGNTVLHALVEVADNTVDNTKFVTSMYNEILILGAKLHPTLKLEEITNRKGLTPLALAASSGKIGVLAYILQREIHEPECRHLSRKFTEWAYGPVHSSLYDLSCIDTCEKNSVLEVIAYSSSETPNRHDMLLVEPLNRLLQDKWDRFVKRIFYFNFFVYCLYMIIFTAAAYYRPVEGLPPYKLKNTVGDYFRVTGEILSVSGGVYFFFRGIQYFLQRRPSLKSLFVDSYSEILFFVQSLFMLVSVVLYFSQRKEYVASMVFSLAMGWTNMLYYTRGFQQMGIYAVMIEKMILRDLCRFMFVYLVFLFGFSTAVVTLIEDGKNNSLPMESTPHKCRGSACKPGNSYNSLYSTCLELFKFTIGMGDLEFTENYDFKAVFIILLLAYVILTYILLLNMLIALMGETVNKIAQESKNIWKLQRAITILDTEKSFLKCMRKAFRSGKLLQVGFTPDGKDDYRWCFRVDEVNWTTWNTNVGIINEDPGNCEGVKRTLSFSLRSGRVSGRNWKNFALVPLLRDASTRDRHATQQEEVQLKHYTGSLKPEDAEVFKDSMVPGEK
Description: Each of the compounds synthesized in the examples were dissolved in dimethyl sulfoxide (DMSO) at a concentration of 10 mM. For use in the assay for inhibitory activity against patch clamp activity, the solutions were diluted to a concentration of 1 μM with the same physiological saline as in the pipette solution of Table 1, below.
2) Assay for Inhibitory Activity Against VR1 Patch Clamp Activity
In this experiment, changes in VR1 activity were recorded in current using an electrophysiological technique.
For use in this experiment, a rat TRPV1 cDNA was transfected into a subcultured HEK293 strain with the aid of lipofectamin.
The rat TRPV1 gene-transfected HEK293 cells were detached from the cell culture dishes with trypsin and distributed on a patch clamp recording chamber.
A cover glass slip on the bottom of the patch clamp recording chamber was treated for 15 min or longer with a […] poly-L-lysine solution so that the HEK cells would readily adhere thereto. Cellular membranes were ruptured at room temperature (˜25° C.) from randomly selected HEK cells to perform an inside-out patch clamp technique. 10 μM of capsaicin was fed into the chamber (cytoplasmic side) to activate a capsaicin current through the VR1. When the capsaicin current reached a stable stage, each compound was added along with 10 μM of capsaicin to record the inhibitory activity of the compounds with regard to the current. The inhibition was expressed as percentages.
Detected current was amplified using a Digidata 1200B A/D converter and an Axopatch 1D amplifier (Axon instruments Inc.), and the data were recorded and analyzed with the aid of a computer. The inhibitory activity of each compound was expressed as a percentage relative to the capsaicin current immediately before the administration of each compound.

IC50 [1] [nM]	inhibition at 1 µM [3] [%]	SMILES	inhibition in vivo at 20 mg/kg [2] [%]
130	100	FC(F)(F)c1ccc2nc(-c3ccc(-c4ncccc4Cl)cc3)[nH]c2c1 [Compound 1, 2-[4-(3-Chloropyridin-2-yl)-phenyl]-6-trifluoromethyl-1H-benzoimidazole]	33
61	100	CC(C)(C)c1ccc2nc(-c3ccc(-c4ncccc4Cl)cc3)[nH]c2c1 [Compound 3, 6-tert-butyl-2-[4-(3-chloropyridin-2-yl)phenyl]-1H-benzoimidazole]	58
11	94	FC(F)(F)c1cc(Cl)c2nc(-c3ccc(-c4ncccc4Cl)cc3)[nH]c2c1 [Compound 6, 4-chloro-2-[4-(3-chloropyridin-2-yl)phenyl]-6-trifluoromethyl-1H-benzoimidazole]	33
70		Clc1cc2nc(-c3ccc(-c4ncccc4Cl)cc3)[nH]c2cc1Cl [Compound 12, 2-[4-(3-chloropyridin-2-yl)phenyl]-5,6-dichloro-1H-benzoimidazole]	35
100		CC(C)(C)c1ccc2nc(-c3ccc(-c4ncc(Cl)cc4Cl)cc3)[nH]c2c1 [Compound 25, 6-tert-butyl-2-[4-(3,5-dichloropyridin-2-yl)phenyl]-1H-benzoimidazole]	23
4	50	CS(=O)(=O)Nc1ccc(-c2ccc(-c3nc4c(C(F)(F)F)cc(C(F)(F)F)cc4[nH]3)cc2)cc1F [Compound 29, N-[4′-(4,6-bistrifluoromethyl-1H-benzoimidazole-2-yl)-3-fluorobiphenyl-4-yl]methanesulfonamide]	41
8	66	FC(F)(F)c1cc(Cl)c2nc(-c3ccc(-c4ncccc4C(F)(F)F)cc3)[nH]c2c1 [Compound 31, 4-chloro-6-trifluoromethyl-2-[4-(3-trifluoromethylpyridin-2-yl)phenyl]-1H-benzoimidazole]	35
10	10	FC(F)(F)c1cc(C(F)(F)F)c2nc(-c3ccc(-c4ncccc4C(F)(F)F)cc3)[nH]c2c1 [Compound 33, 4,6-bistrifluoromethyl-2-[4-(3-trifluoromethylpyridin-2-yl)phenyl]-1H-benzoimidazole]	31
94		FC(F)(F)c1cc(Br)c2nc(-c3ccc(-c4ncccc4C(F)(F)F)cc3)[nH]c2c1 [Compound 36, 4-bromo-6-(trifluoromethyl)-2-(4-(3-(trifluoromethyl)pyridin-2-yl)phenyl)-1H-benzoimidazole]	70
75		FC(F)(F)c1cccnc1-c1ccc(-c2nc3ccc(Br)cc3[nH]2)cc1 [Compound 37, 6-bromo-2-(4-(3-(trifluoromethyl)pyridin-2-yl)phenyl)-1H-benzoimidazole]	50
122	80	CC(C)(C)c1ccc2nc(-c3ccc(-c4ncccc4Cl)cc3F)[nH]c2c1 [Compound 67, 6-tert-butyl-2-[4-(3-chloropyridin-2-yl)-2-fluorophenyl]-1H-benzoimidazole]	23
31	86	FC(F)(F)c1ccc2nc(-c3ccc(-c4ncccc4Cl)c4ccccc34)[nH]c2c1 [Compound 104, 2-[4-(3-chloropyridin-2-yl)naphthalen-1-yl]-6-trifluoromethyl-1H-benzoimidazole]	
24	78	CC(C)(C)c1ccc2nc(-c3ccc(-c4ncccc4Cl)c4ccccc34)[nH]c2c1 [Compound 105, 6-tert-butyl-2-[4-(3-chloropyridin-2-yl)naphthalen-1-yl]-1H-benzoimidazole]	50
525	80	FC(F)(F)c1ccc2nc(-c3ccc(-c4ncc(Cl)cc4Cl)c(Cl)c3)[nH]c2c1 [Compound 117, 2-[3-chloro-4-(3,5-dichloropyridin-2-yl)phenyl]-6-trifluoromethyl-1H-benzoimidazole]	
313	93	CC(C)(C)c1ccc2nc(-c3ccc(-c4ncc(Cl)cc4Cl)c(Cl)c3)[nH]c2c1 [Compound 118, 6-tert-butyl-2-[3-chloro-4-(3,5-dichloropyridin-2-yl)phenyl]-1H-benzoimidazole]	
105	87	CC(C)(C)c1ccc2nc(-c3ccc(-c4ccccn4)c(Cl)c3)[nH]c2c1 [Compound 126, 6-tert-butyl-2-(3-chloro-4-pyridin-2-ylphenyl)-1H-benzoimidazole]	
97	84	FC(F)(F)c1ccc2nc(-c3ccc(-c4ncc(Cl)cc4Cl)cn3)[nH]c2c1 [Compound 151, 3,5-dichloro-6′-(6-trifluoromethyl-1H-benzoimidazole-2-yl)-[2,3′]bipyridine]	
23	58	FC(F)(F)c1cc(Cl)c2nc(-c3ccc(-c4ncccc4C(F)(F)F)cn3)[nH]c2c1 [Compound 161, 6′-(4-chloro-6-trifluoromethyl-1H-benzoimidazole-2-yl)-3-trifluoromethyl-[2,3′]bipyridine and 6′-(5-trifluoromethyl-7-chloro-1H-benzoimidazole-2-yl)-3-trifluoromethyl-[2,3′]bipyridine]	
15		FC(F)(F)c1cccnc1-c1ccc(-c2nc3cc(Cl)c(Cl)cc3[nH]2)nc1 [Compound 163, 6′-(5,6-dichloro-1H-benzoimidazole-2-yl)-3-trifluoromethyl-[2,3′]bipyridine]	41
9		FC(F)(F)c1cc(Br)c2nc(-c3ccc(-c4ncccc4C(F)(F)F)cn3)[nH]c2c1 [Compound 164, 4-bromo-6-(trifluoromethyl)-2-(5-(3-(trifluoromethyl)pyridin-2-yl)pyridin-2-yl)-1H-benzoimidazole]	53
28		FC(F)(F)c1cccnc1-c1ccc(-c2nc3ccc(Br)cc3[nH]2)nc1 [Compound 165, 6-bromo-2-(5-(3-(trifluoromethyl)pyridin-2-yl)pyridin-2-yl)-1H-benzoimidazole]	60
		FC(F)(F)c1cccnc1-c1ccc(-c2nc3ncc(Br)cc3[nH]2)nc1 [Compound 167, 6′-(6-bromo-1H-imidazo[4,5-b]pyridine-2-yl)-3-trifluoromethyl[2,3′]bipyridine]	55
		FC(F)(F)c1cccnc1-c1ccc(-c2nc3ccc(N4CCOCC4)cc3[nH]2)nc1 [Compound 169, 6′-(6-morpholin-4-yl-1H-benzoimidazo-2-yl)-3-trifluoromethyl-[2,3′]bipyridine]	57
221	40	CC(C)(C)c1ccc2nc(-c3ccc(-n4cccc4)cc3)[nH]c2c1 [Compound 181, 6-tert-butyl-2-(4-pyrrol-1-ylphenyl]-1H-benzoimidazole]	
